Results reported in article PMC12040169 (PLOS Biology, 2025).

Test: in vitro
Details: human, hela cells, % viability

With `O=C(NCc1ccccc1)c1ccc(CN2CCC(Cc3ccccc3)CC2)cc1` [CBK263432] as the molecule, how does the viability at 28.5 h, 10 µM read?
Its viability at 28.5 h, 10 µM is 87.5%.

For `CCCCOc1cccc(C(=O)Nc2ccc(-c3nc4ccccc4o3)c(O)c2)c1` [CBK263435], which viability at 28.5 h, 10 µM is on record?
The viability at 28.5 h, 10 µM was 101%.

Which viability at 28.5 h, 10 µM does the source give for `O=C(Nc1ccc2oc(-c3cccnc3)nc2c1)c1ccc(Br)o1` [CBK263436] here?
Its viability at 28.5 h, 10 µM is 112%.

With `Cc1cc2nc(-c3cc(NC(=O)/C=C/c4cccc([N+](=O)[O-])c4)ccc3O)oc2cc1C` [CBK263438] as the molecule, how does the viability at 28.5 h, 10 µM read?
The viability at 28.5 h, 10 µM was 94.1%.

With `CCOc1cc(OCC)cc(C(=O)Nc2ccc(-c3nc4ncccc4o3)cc2)c1` [CBK263440] as the molecule, how does the viability at 28.5 h, 10 µM read?
Its viability at 28.5 h, 10 µM is 96.8%.

Which viability at 28.5 h, 10 µM does the source give for `O=C(NCCCN1CCOCC1)c1cc2cc([N+](=O)[O-])ccc2oc1=O` [CBK263441] here?
Its viability at 28.5 h, 10 µM is 90.9%.

With `O=C(COc1ccc([N+](=O)[O-])cc1)Nc1ccc2oc(-c3ccc(Br)cc3)nc2c1` [CBK263444] as the molecule, how does the viability at 28.5 h, 10 µM read?
Its viability at 28.5 h, 10 µM is 106%.

For `COc1ccc2[nH]c(SCC(=O)Nc3ccc(Br)cc3)nc2c1` [CBK263447], which viability at 28.5 h, 10 µM is on record?
The viability at 28.5 h, 10 µM was 91%.

Which viability at 28.5 h, 10 µM does the source give for `N=c1n(CCN2CCCC2)c2ccccc2n1CC(O)c1ccc(Cl)c(Cl)c1` (centres unmarked) [CBK263448C] here?
Its viability at 28.5 h, 10 µM is 83.6%.

Which viability at 28.5 h, 10 µM does the source give for `CC1CCCC(N2CCN(Cc3ccccn3)CC2)C1` (centres unmarked) [CBK263450] here?
Its viability at 28.5 h, 10 µM is 93%.

Which viability at 28.5 h, 10 µM does the source give for `O=C(Nc1ccc(-c2nnc(-c3ccco3)o2)cc1)C(c1ccccc1)c1ccccc1` [CBK263452] here?
Its viability at 28.5 h, 10 µM is 106%.

Which viability at 28.5 h, 10 µM does the source give for `Cc1no[n+]([O-])c1COc1cccc(/C=C2\N=C(c3ccccc3)OC2=O)c1` [CBK263454] here?
Its viability at 28.5 h, 10 µM is 96.3%.

For `CCN(CC)CCn1c(=N)n(CC(=O)c2ccc(Cl)c(Cl)c2)c2ccccc21` [CBK263455B], which viability at 28.5 h, 10 µM is on record?
The viability at 28.5 h, 10 µM was 91.5%.

With `CC(C)C(=O)Nc1ccc(Oc2ccc(C(=O)O)c(C(=O)O)c2)cc1` [CBK263463] as the molecule, how does the viability at 28.5 h, 10 µM read?
The viability at 28.5 h, 10 µM was 86.4%.

With `COc1ccc(C(=O)Nc2ccccc2)cc1NC(=O)c1cc(C(F)(F)F)cc(C(F)(F)F)c1` [CBK263465] as the molecule, how does the viability at 28.5 h, 10 µM read?
The viability at 28.5 h, 10 µM was 90%.

With `COc1nnc(-c2ccc(C)cc2)c2ccccc12` [CBK263466] as the molecule, how does the viability at 28.5 h, 10 µM read?
The viability at 28.5 h, 10 µM was 92%.

Which viability at 28.5 h, 10 µM does the source give for `CC(C)(C)c1cc(N2C(=O)C(O)=C(C(=O)c3ccc(Cl)cc3)C2c2cccc([N+](=O)[O-])c2)no1` (centres unmarked) [CBK263470] here?
Its viability at 28.5 h, 10 µM is 92.8%.

For `O=C(CN1C(=O)c2ccc([N+](=O)[O-])cc2C1=O)Nc1cc(Cl)ccc1C(=O)O` [CBK263472], which viability at 28.5 h, 10 µM is on record?
The viability at 28.5 h, 10 µM was 97.1%.

With `CC1CCC(N2CCN(Cc3ccccn3)CC2)CC1` (centres unmarked) [CBK263473] as the molecule, how does the viability at 28.5 h, 10 µM read?
The viability at 28.5 h, 10 µM was 90.6%.

Which viability at 28.5 h, 10 µM does the source give for `COc1ccc(OC)c(C(O)c2nc3ccccc3n2C(C)C)c1` (centres unmarked) [CBK263474] here?
The viability at 28.5 h, 10 µM was 92.7%.

With `COc1cc(CN2CCN(C(=O)c3cccc4ccccc34)CC2)cc(OC)c1O` [CBK263477] as the molecule, how does the viability at 28.5 h, 10 µM read?
Its viability at 28.5 h, 10 µM is 103%.

Which viability at 28.5 h, 10 µM does the source give for `Cc1cc(-c2ccccc2)nn1C(CC(=O)O)C(=O)O` (centres unmarked) [CBK263480] here?
The viability at 28.5 h, 10 µM was 91.6%.

Which viability at 28.5 h, 10 µM does the source give for `N=c1n(CCN2CCCCC2)c2ccccc2n1CC(=O)c1cccc([N+](=O)[O-])c1` [CBK263481B] here?
The viability at 28.5 h, 10 µM was 103%.

For `CC1=NN(c2ccc(S(N)(=O)=O)cc2)C(=O)/C1=C\c1ccc(-c2cccc(C(=O)O)c2)o1` [CBK263483], which viability at 28.5 h, 10 µM is on record?
Its viability at 28.5 h, 10 µM is 98%.

For `COc1ccccc1C(=O)N1CCN(Cc2cc(OC)c(O)c(OC)c2)CC1` [CBK263484], which viability at 28.5 h, 10 µM is on record?
The viability at 28.5 h, 10 µM was 101%.

For `COc1cc(/C=N/NC(=O)CCNc2n[nH]c(=O)[nH]c2=O)cc(Br)c1O` [CBK263494], which viability at 28.5 h, 10 µM is on record?
Its viability at 28.5 h, 10 µM is 88.3%.

Which viability at 28.5 h, 10 µM does the source give for `O=C(O)C(Cc1ccccc1)N1C(=O)/C(=C/C=C/c2ccccc2)SC1=S` (centres unmarked) [CBK263496] here?
Its viability at 28.5 h, 10 µM is 99.6%.

With `Cc1ccc(C2=NN(C(=N)SC3CC(=O)N(c4ccc(C(=O)O)cc4)C3=O)C(c3ccc(Br)cc3)C2)cc1` (centres unmarked) [CBK263497] as the molecule, how does the viability at 28.5 h, 10 µM read?
Its viability at 28.5 h, 10 µM is 112%.

Which viability at 28.5 h, 10 µM does the source give for `CCOC(=O)c1c(C)n(-c2ccc(C)cc2)c2ccc(O)c(CN(C)C)c12` [CBK263499C] here?
Its viability at 28.5 h, 10 µM is 78.5%.

For `O=C(Nc1ccc(S(=O)(=O)Nc2nccc(/C=C/c3ccc(Cl)cc3)n2)cc1)c1ccc(Br)cc1` [CBK263500], which viability at 28.5 h, 10 µM is on record?
The viability at 28.5 h, 10 µM was 103%.

With `COC(=O)c1c(NC(=S)Nc2ccccc2)sc(Cc2ccccc2)c1C` [CBK263501] as the molecule, how does the viability at 28.5 h, 10 µM read?
The viability at 28.5 h, 10 µM was 90.6%.

With `COc1ccc(-n2c(C)c([N+](=O)[O-])c3ccc(O)c(CNCCCO)c32)cc1` [CBK263504C] as the molecule, how does the viability at 28.5 h, 10 µM read?
The viability at 28.5 h, 10 µM was 88.4%.

For `CN(C)CCNC(=O)NC(c1ccccc1)c1ccccc1` [CBK263505C], which viability at 28.5 h, 10 µM is on record?
Its viability at 28.5 h, 10 µM is 104%.

Which viability at 28.5 h, 10 µM does the source give for `Cc1cc(Br)c(NCC(=O)N/N=C/c2ccc(O)cc2)c(Br)c1` [CBK263506] here?
The viability at 28.5 h, 10 µM was 101%.

Same assay, conditions: human, hela cells, % viability, bulk resorufin, single well

For `COc1cc(/C=C2/C(=O)NC(=O)N(c3ccccc3)C2=O)cc(Cl)c1O` [CBK263361], which viability at 28.5 h, 10 µM is on record?
The viability at 28.5 h, 10 µM was 93.3%.

With `CCOc1cccc(N2C(=O)/C(=C\c3ccc(-c4ccc(C(=O)O)c(Cl)c4)o3)C(=O)NC2=S)c1` [CBK263403] as the molecule, how does the viability at 28.5 h, 10 µM read?
Its viability at 28.5 h, 10 µM is 92.1%.

For `Cc1cc(Br)ccc1N1C(=O)NC(=O)/C(=C\c2ccc(-c3ccc(S(N)(=O)=O)cc3)o2)C1=O` [CBK263413], which viability at 28.5 h, 10 µM is on record?
The viability at 28.5 h, 10 µM was 97.4%.

For `NS(=O)(=O)c1ccc(-c2ccc(/C=C3\C(=O)NC(=O)N(c4ccc(Br)cc4)C3=O)o2)cc1` [CBK263423], which viability at 28.5 h, 10 µM is on record?
Its viability at 28.5 h, 10 µM is 93.2%.

For `Cc1cc(C=C2C(=O)NC(=O)NC2=O)c(C)n1C1CCCCC1` [CBK263426], which viability at 28.5 h, 10 µM is on record?
The viability at 28.5 h, 10 µM was 93.6%.

For `COc1cc(C=C2C(=O)NC(=S)NC2=O)ccc1OCc1c(C)no[n+]1[O-]` [CBK263467], which viability at 28.5 h, 10 µM is on record?
The viability at 28.5 h, 10 µM was 95.8%.

Which viability at 28.5 h, 10 µM does the source give for `COc1cc(C=C2C(=O)NC(=S)NC2=O)cc(Br)c1OCc1c(C)no[n+]1[O-]` [CBK263475] here?
The viability at 28.5 h, 10 µM was 98.9%.
